Assay results from the NIST ThermoML archive (doi:10.1021/acs.jced.7b00485).
Numbers after ± are expanded uncertainties.

Settings: Liquid, Closed cell (Static) method

Compound | vapor or sublimation pressure (273.27 K) [kPa] | vapor or sublimation pressure (288.25 K) [kPa] | vapor or sublimation pressure (294.23 K) [kPa] | vapor or sublimation pressure (296.23 K) [kPa] | vapor or sublimation pressure (308.21 K) [kPa] | vapor or sublimation pressure (323.19 K) [kPa]
FC(F)(F)C(F)(F)F [hexafluoroethane] | 1851 ± 3 | 2708 ± 4 | – | – | – | –
CCCC [butane] | 104 ± 1 | 177 ± 1 | 215 ± 1 | 231 ± 1 | 332 ± 1 | 498 ± 1
